From publication PMC11079029, “Intramolecular autoinhibition regulates the selectivity of PRPF40A tandem WW domains for proline-rich motifs” (Nature Communications, 2024)
Read-outs that look alike come from different tables or passages of the source.

Legend:
PRPF40A Mut N-ExtWW12 = target: T1, PRPF40A Mut N-ExtWW12 (Homo sapiens, UniProt O75400, L125A/P123A/P126A/P127A/P78A/P79A/P81A/V80A); test: ITC of mutant N-ext-WW12 (PPVP/PALPP motifs changed to alanine) with SF1WWbs; format: binding
T1 construct: WW12long 141–248, and N-ext-WW12 56–236; 6xHis-TEV site (N, cleaved yes); made in house; host or cells: Escherichia coli BL21(DE3)
T1 sequence (O75400 56-236 P78A/P79A/V80A/P81A/P123A/L125A/P126A/P127A limits assumed): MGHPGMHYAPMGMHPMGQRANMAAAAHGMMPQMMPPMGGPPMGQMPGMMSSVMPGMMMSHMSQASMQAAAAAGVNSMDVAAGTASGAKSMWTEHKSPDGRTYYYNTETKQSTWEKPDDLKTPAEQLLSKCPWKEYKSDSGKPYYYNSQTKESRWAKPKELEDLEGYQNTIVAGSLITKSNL
Source text: While only partial backbone chemical shift assignments of this construct (69% completeness), N-ext-WW12, could be possible due to a highly repetitive sequence, a complete assignment of the methyl groups was achieved. We then performed a titration with the high-affinity peptide, SF1WWbs, by NMR. […] To further support this conclusion, we prepared a mutant version of the N-ext-WW12 construct, changing these two motifs to alanine residues, and observed clear shifting of NMR signals towards the free WW12 spectrum in the short version of the tandem. This corroborates that mainly these two proline-rich motifs govern the intramolecular interacting region (Supplementary Fig. 19).
To further confirm this analysis, we titrated SF1WWbs and the mutant version of the N-ext-WW12 construct (changing the PPVP/PALPP motifs for alanine residues).
PRPF40A isoform 1 sequences (N-ter 1–310, WW12short 141–223, WW12 141–236, WW12long 141–248, and N-ext-WW12 56–236) were amplified from a purchased DNA fragment (IDT) and cloned using NcoI and KpnI restriction sites into a pETM11 vector encoding 6xHis and TEV cleavage site as a N-terminal tag. SF1 (Pro A 410–468, Pro B 468–539, Pro C 539–594, Pro D 594–639, Pro BC 468–594, Pro CD 539–639, Pro BCD 468–639 and Pro ABCD 410–639) and SF3A1 (Middle Pro 364–413 and C-ter Pro 552–683) constructs were prepared in a similar manner using a pET24 vector with a 6xHis, GB1 and TEV cleavage site as N-terminal fusion cassette. 16-mer SF1 constructs (Table 1) and polyproline peptides (P6, P8, P10, P13, P16, P19, P22, P25, and P29) were cloned in the same pET24 vector with GB1 tag by direct ligation of purchased oligonucleotides (Eurofins). All peptide sequences contained N and C-terminal common residues to avoid boundary effects on binding: TEVsite-GAMSGS-peptide-SGSN. Mutants of PRPF40A WW12 and N-ext-WW12 constructs were prepared by site-directed mutagenesis. The truncated version of PRPF40A WW12 (141-217) was a gift from Dr. María Macías (IRB, Spain). All used oligonucleotides were purchased from Eurofins Genomics and are shown in Supplementary Table 6.
Experiments were conducted on a MicroCAl PEAQ-ITC (Malvern Instruments, UK) at 25 °C in 20 mM sodium phosphate pH 6.5 and 100 mM NaCl. PRPF40A was titrated into N-terminal GB1 tagged SF1 or polyproline constructs and vice versa with similar results. Protein concentrations in the cell were around 20–40 μM, while in the syringe ranged between 200 and 500 μM. Experiments were performed at least in duplicate with injections of 1.5 μL (0.4 μL for first point) separated by 150 s delays to recover thermal power baseline and continuous stirring in the cell (750 rpm) for correct mixing. The reference cell was filled with water in all experiments. Data were processed by removing the blank experiment (using digested GB1 fusion protein) and adjusted to one-site binding model with Malvern PEAQ-ITC Analysis software (Malvern Instruments, UK).

PRPF40A WW12 = test: NMR titration (1H-15N HSQC, chemical shift perturbation) of WW12 with polyproline or SF1 peptides; format: binding, human; conditions: 15N-labelled WW12 around 100 μM, unlabelled GB1-tagged peptide, 25 °C
Description: (§1) NMR samples were prepared at concentrations ranging 100–1000 μM in buffer containing 20 mM sodium phosphate pH 6.5, 100 mM NaCl, 1 mM DTT, and 10% or 100% D2O, and measured at 25 °C (except stated otherwise) in 900-, 800-, 600- and 500-MHz Bruker Avance III NMR spectrometers equipped with cryogenic triple resonance gradient probes. Topspin 4.1.0 (Bruker) software was used for NMR data acquisition. Spectra were processed with NMRpipe 8.9[76] and analyzed using ccpnNMR Analysis 2.5 software.
(§2) ^15N-labeled PRPF40A proteins (WW1, WW2, WW12, and N-extWW12) at around 100 μM concentration were titrated with increasing concentration ratios of polyproline or SF1 peptides (GB1 tagged) until reaching saturation, when possible; ^1H-^15N HSQC experiments and in some cases ^1H-^13C HSQC experiments (using double-labeled PRPF40A proteins) were acquired at each titration point. The chemical shift perturbation (CSP) was weighted using the Eqs. (1) and (2)[89].1 CSP(HN)=0.5⋅ΔδH2+0.14⋅ΔδN2 2 CSP(HC)=0.5⋅ΔδH2+0.3⋅ΔδC2

PRPF40A N-ext-WW12 = test: NMR titration (1H-15N and 1H-13C HSQC) of N-ext-WW12 with SF1 peptides; format: binding, human; conditions: NMR titration of N-ext-WW12, ratios 1:1 up to 1:4
Description: as §1, §2

PPLPPGAPPPPPPPPP [SF1WWbs]
N (sites) (PRPF40A Mut N-ExtWW12; ITC as E10): 0.84 ± 0.05 sites | DH (PRPF40A Mut N-ExtWW12; ITC binding enthalpy, as E10): -21 ± 2.2 kcal/mol | Kd (µM) (PRPF40A Mut N-ExtWW12; ITC, 25 °C, 20 mM sodium phosphate pH 6.5, 100 mM NaCl, GB1-tagged SF1 16-mer, N-ext-WW12 with PPVP/PALPP changed to alanine, at least duplicates): comparable to the isolated WW tandem | Kd (PRPF40A Mut N-ExtWW12; ITC, 25 °C, 20 mM sodium phosphate pH 6.5, 100 mM NaCl, GB1-tagged SF1 16-mer, N-ext-WW12 with PPVP/PALPP changed to alanine, at least duplicates, read-out: Kd): 2210 ± 240 nM | Kd (PRPF40A Mut N-ExtWW12; ITC, individual value 1 (replicate 1), read-out: Kd Values with Nter Ext WW12 MUTANT, individual value): 2440 nM | Kd (PRPF40A Mut N-ExtWW12; ITC, individual value 2 (replicate 2), read-out: Kd Values with Nter Ext WW12 MUTANT, individual value): 1980 nM | binding by NMR titration, exchange regime (PRPF40A WW12): slow exchange regime | displacement of the intramolecular N-terminal motifs (methyl signals Val 80, Val 129) (PRPF40A N-ext-WW12): able to displace the intramolecular interaction
